Measured values published in ChEMBL document CHEMBL1147238, “Komodoquinone A, a novel neuritogenic anthracycline, from marine Streptomyces sp. KS3” (J Nat Prod, 2003).
Calls of active or inactive are those of the source. The calls are words filed in the database; no cut-off is given here.

Key:
N2a [1] = assay: Neuritogenic activity in mouse Neuro2a cells assessed as morphological changes at 1 ug/mL after 24 or 48 hrs; type: functional, cell-based
N2a [2] = assay: Neuritogenic activity in mouse Neuro2a cells assessed as morphological changes at 3 ug/mL after 24 or 48 hrs; type: functional, cell-based

Compound | Activity (N2a [1]) | Activity (N2a [2])
C[C@@H]1O[C@@H](Oc2cccc3c2C(=O)c2c(O)c4c(c(O)c2C3=O)C[C@](C)(O)C[C@@H]4O)[C@@H](O)[C@H](N(C)C)[C@@H]1O | Active | –
COc1cccc2c1C(=O)c1c(O)c3c(c(O)c1C2=O)C[C@@](O)(C(=O)CO)C[C@@H]3O[C@H]1C[C@H](N)[C@H](O)[C@H](C)O1 | – | inactive
